According to patent US5198568A, “Compounds useful in enzymatic resolution systems and their preparation” (priority 1991, dated 1993):
Where a name gives a salt, the structure may show the parent alone. One block for each molecule: values may come before it.

Legend:
[1] = target: T1, Protease VIII, Subtilopeptidase A (subtilisin Carlsberg) (Sigma, Enzyme B) (Bacillus licheniformis, UniProt P00780); experiment: Homogeneous aqueous enzymatic resolution (ester hydrolysis), Enzyme B; format: biochemical; conditions: for % e.e.: acid product
T1 sequence (P00780 106-379): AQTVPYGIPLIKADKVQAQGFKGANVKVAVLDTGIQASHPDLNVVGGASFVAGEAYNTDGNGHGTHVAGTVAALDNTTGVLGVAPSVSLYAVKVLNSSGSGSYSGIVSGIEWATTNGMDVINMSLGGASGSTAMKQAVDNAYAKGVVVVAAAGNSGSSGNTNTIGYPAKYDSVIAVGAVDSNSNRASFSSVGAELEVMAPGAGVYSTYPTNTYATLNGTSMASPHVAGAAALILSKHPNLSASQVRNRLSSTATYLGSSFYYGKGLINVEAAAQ

[2] = test system: protease Prozyme 6 from Aspergillus oryzae (Amano, Enzyme F); experiment: Homogeneous aqueous enzymatic resolution (ester hydrolysis), Enzyme F; format: biochemical; conditions: for % CONVERSION: 10 mmol ester in 100 ml 0.2M buffer pH 7.0, 25 C
Protocol: (§1) The enzymatic reaction mixtures were capped and briefly shaken until all the substrate had dissolved, and the enzyme had completely dissolved or dispersed. […] Evaporation of the ether left a white solid. Rotations were measured at c=1 in CHCl3.
as §1
The reaction was started by adding 100 mg of the protease (F) from the fungus Aspergillus oryzae (from Amano Enzyme Corporation, Prozyme 6, 60,000 units per mg of solid).
After 20 hours at room temperature, the solution was acidified to pH 2 and extracted with 3 volumes of diethyl ether. The aqueous phase was saved for subsequent workup. The ether phase was washed with two volumes of distilled water and then one volume of saturated sodium chloride, and then it was dried over MgSO4 and subsequently evaporated to dryness. The resolved ibuprofen product recovered was 930 mg of white powder, indicating 45% conversion of racemic ester to acid. The optical rotation was -0.580° (measured at c=1 in ethanol), indicating the R isomer of ibuprofen.
35 mg of protease Enzyme F, as the commercial preparation Prozyme 6, were added to the aqueous solution. The reaction flask was capped, and briefly shaken until all the enzyme had dissolved or dispersed. […] The resulting mixture was diluted with one volume of water and was extracted with diethyl ether (2 times 200 ml). The ether layers were combined and backwashed with water (2 times 200 ml), saturated NaCl solution (200 ml), and then dried over MgSO4.
In this control run, a 0.5M ester solution of (1) was prepared in 325 ml of 0.1M sodium phosphate buffer (pH 7.0). The reaction was started by adding 3 gm of the above enzyme (F). The pH was controlled at 7.0 with 8.22M sodium hydroxide. After 6.49 hours at 30 ° C., 6.63 ml of hydroxide were added, indicating 37.7% conversion. The reaction was allowed to continue overnight and, after 23.1 hours, a total of 7.2 ml of sodium hydroxide were added, indicating 40.9% conversion.

[3] = test system: Protease XXIII from Aspergillus oryzae (Sigma, Enzyme A); experiment: Homogeneous aqueous enzymatic resolution (ester hydrolysis), Enzyme A; format: biochemical
Protocol: No further purification was performed.

[4] = test system: lipase derived from Candida cylindracea (Genzyme, Enzyme G); experiment: Asymmetric hydrolysis in a multiphase membrane bioreactor, Enzyme G
Protocol: 3.0 grams of the lipase were dissolved in 500 mls of distilled water; this solution was recirculated in an ultrafiltration mode from the shell into the lumen and back to the reservoir for 30 minutes. The ultrafiltrate was then collected until the reservoir was empty, and methyl isobutyl ketone (MIBK) was then pumped into the shell and recirculated at 400-450 ml/min with a 5-7 psig shell pressure to remove any remaining enzyme solution from the shell.
A reactor was prepared as described in Example 6.2.2.5 (naproxen) using essentially the same mode of loading the enzyme, 3.0 grams of Candida lipase (Enzyme G, from Genzyme Corporation) were ultrafiltered from the shell into the lumen. The enzyme was then washed with 2-3 l of distilled water and 1 l of potassium phosphate buffer (0.10 M, pH 7.7). The module was then drained.
No organic solvent was required as the substrate is already a water-immiscible liquid. Phosphate buffer was immediately pumped into the lumen and recirculated at 400-450 ml/min.
The reaction was monitored by following acid production based on hydroxide titration data. […] The aqueous buffer was replaced after 76 minutes and acidified to pH 2.0 with concentrated HCl in the presence of about 200 ml of chloroform.

[5] = test system: Candida lipase (Sigma L-1754, Enzyme H); experiment: Asymmetric hydrolysis in a multiphase membrane bioreactor, Enzyme H; conditions: 210 gm neat ester
Protocol: The enzyme solution was recirculated from the shell side to the lumen side and back to the solution reservoir in an ultra-filtration mode. […] The procedure was completed in one hour.
After loading the enzyme to the reactor, recirculation of 210 gm. […] The recirculation rate was 400 ml/min and the average pressure on the shell compartment was kept at 6.5 psi by adjusting a throttling valve at the shell side exit. On the lumen side 1 liter of 0.05M K was recirculated at a rate of 400 ml/min. The pH of the aqueous reservoir was kept at 7.0 by addition of 1M NaOH. The reactor was run continuously for 6.8 days.
The reaction progress and rate were monitored by following the caustic consumption. […] The initial ester substrate to the reactor had no optical rotation.

[6] = test system: Pig Liver Esterase (Sigma E-3128, Enzyme E); experiment: Homogeneous aqueous enzymatic resolution (ester hydrolysis), Enzyme E; format: biochemical; conditions: 30 mg Pig Liver Esterase (E)
[7] = target: T2, Protease XXVII, Nagarse (Sigma, Enzyme D) (Bacillus amyloliquefaciens, UniProt P00782); experiment: Homogeneous aqueous enzymatic resolution (ester hydrolysis), Enzyme D; format: biochemical; conditions: 150 mg enzyme D
T2 construct: purchased Sigma
T2 sequence (P00782 108-382): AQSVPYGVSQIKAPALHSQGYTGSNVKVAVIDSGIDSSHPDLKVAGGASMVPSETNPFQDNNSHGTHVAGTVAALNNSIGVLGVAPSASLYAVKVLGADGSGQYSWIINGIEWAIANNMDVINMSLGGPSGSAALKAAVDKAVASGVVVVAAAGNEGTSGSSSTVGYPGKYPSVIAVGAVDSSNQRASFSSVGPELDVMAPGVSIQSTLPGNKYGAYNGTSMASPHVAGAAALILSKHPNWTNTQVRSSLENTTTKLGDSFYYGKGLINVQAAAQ

[8] = 0.010 mol ester in 100 ml 0.2M sodium phosphate pH 7.8

% CONVERSION ([1]; 100 mg enzyme B, 10 mmol ester in 100 ml 0.2 M phosphate buffer pH 7.0, 20-22 C, 20 hours): 20.0%
SMILES: CC(C)Cc1ccc(C(C)C(=O)OCCCCS(=O)(=O)O)cc1 (stereo not shown) [Compound 4, Potassium Salt of 4-Sulfobutyl Ester of 2-(4-Isobutylphenyl)propanoic Acid]

completion of reaction ([2]; 35 mg Prozyme 6 (F), 10 mmol ester in 100 ml 0.2M sodium phosphate pH 7.0, 30 C, 1 hour): 22.5%
SMILES: CC(Oc1ccc(Cl)cc1)C(=O)OCS(=O)(=O)O (stereo not shown) [Compound 17, Sodium Salt of the Sulfomethyl Ester of 2-(4-Chlorophenoxy)propanoic Acid]

% CONVERSION ([3]; 100 mg enzyme A, 10.0 mmol ester in 100 ml 0.2M buffer pH 7.0, 25 C, 18 hours): 53%
% e.e. ([3]; acid product, 100 mg enzyme A, pH 7.0, 25 C, 18 hours): 3%
% CONVERSION ([1]; 100 mg enzyme B, 10.0 mmol ester in 100 ml 0.2M buffer pH 7.0, 25 C, 18 hours): 26%
% e.e. ([1]; 100 mg enzyme B, pH 7.0, 25 C, 18 hours): 10%
SMILES: CC(CSC(=O)c1ccccc1)C(=O)OCS(=O)(=O)O (racemic) [Compound 16, Potassium Salt of the Sulfomethyl Ester of (±)-S-3-Benzoylthio-2-methylpropanoic Acid]

enantiomeric excess of S isomer of Naproxen (from unconverted ester hydrolyzed at pH 12) ([3]; 100 mg enzyme A, pH 7.5, 25 degrees, 16 hours, from rotation in CHCl3): 45.5%
SMILES: COc1ccc2cc(C(C)C(=O)OCS(=O)(=O)O)ccc2c1 (stereo not shown) [Compound 9, Sodium Salt of Sulfomethyl Ester of 2-(6-Methoxy-2-naphthyl)propanoic Acid]

% CONVERSION ([2]; 100 mg Prozyme 6 (F), 18 hours): 34.0%
SMILES: COc1ccc2cc(C(C)C(=O)OCCC[N+](C)(C)C)ccc2c1 (stereo not shown) [Compound 12, Methyl Sulfate Salt of 3-(N,N,N-Trimethylammonium)propyl Ester of 2-(6-Methoxy-2-naphthyl)propanoic Acid]

% e.e. ([3]; acid product, 100 mg enzyme A, pH 7.0, 20-22 C, 20 hours): > 99%
SMILES: CC(C)Cc1ccc(C(C)C(=O)OCC[N+](C)(C)C)cc1 (racemic) [Compound 10, Iodide Salt of 2-(N,N,N-Trimethylammonium)ethyl Ester of 2-(4-Isobutylphenyl)propanoic Acid]

% e.e. ([3]; naproxen acid product, 150 mg enzyme A, pH 7.8 (Table 13)): 59.0%
SMILES: COc1ccc2cc(C(C)C(=O)OCCS(=O)(=O)O)ccc2c1 (stereo not shown) [Compound 8, Potassium Salt of 2-Sulfoethyl Ester of 2-(6-Methoxy-2-naphthyl) propanoic Acid]

SMILES: COC(=O)C(C)c1ccc2cc(OC)ccc2c1 (stereo not shown) [Compound 18, Methyl Ester of 2-(6-Methoxy-2-naphthyl)propanoic Acid]
average rate of hydrolysis, first 45 minutes ([4]; 0.75M ester in MIBK, 3.0 grams lipase in 0.85 m2 module, pH 8.50): 35 µmol/h

SMILES: CC(C)Cc1ccc(C(C)C(=O)OCC(F)(F)F)cc1 (stereo not shown) [Compound 19, 2,2,2-Trifluoroethyl Ester of 2-(4-Isobutylphenyl)propanoic Acid]
average hydrolytic rate, first 60 minutes ([4]; neat liquid ester, 3.0 grams lipase, pH 7.7): 160 µmol/min
average hydrolysis rate, next 76 hours ([4]; neat liquid ester, 3.0 grams lipase, pH 7.7, by titrimetry): 21 µmol/min
conversion to acid ([4]; neat liquid ester, 3.0 grams lipase, pH 7.7, over the 76 hours): about 9.8%

SMILES: COc1ccc2cc(C(C)C(=O)OCC[N+](C)(C)C)ccc2c1 (stereo not shown) [Compound 11, Methyl Sulfate Salt of 2-(N,N,N-Trimethylammonium)ethyl Ester of 2-(6-Methoxy-2-naphthyl)propanoic Acid]
% CONVERSION ([2]; 100 mg Prozyme 6 (F), 18 hours): 24.3%
% e.e. ([2]; naproxen acid product, 100 mg Prozyme 6 (F), pH 7.0, 25 C, 18 hours): 34.0%

SMILES: CCCCCCCCOC(=O)C(C)Cl (stereo not shown) [Compound 20, Octyl Ester of 2-Chloropropanoic Acid]
rate of ester hydrolysis at the beginning of the experiment ([5]; 30 grams lipase loaded, pH 7.0): 186 µmol/min
initial ester hydrolyzed at termination ([5]; pH 7.0, run 6.8 days): 41%
rate of ester hydrolysis at the end of the experiment ([5]; pH 7.0, run 6.8 days): 25 µmol/min

% e.e. ([3]; acid product, 150 mg enzyme A, 125 ml, pH 7.0, 18 hours): > 99%
% e.e. ([1]; 150 mg enzyme B, 125 ml, pH 7.0, 18 hours): 90.0%
SMILES: CC(C)Cc1ccc(C(C)C(=O)OCCS(=O)(=O)O)cc1 (stereo not shown) [Compound 2, Sodium Salt of 2-Sulfoethyl Ester of 2-(4-Isobutylphenyl)propanoic Acid]

% CONVERSION [6, 8]: 12.1%
% e.e. ([6]; acid product, pH 7.8): 88.0%
% CONVERSION ([3]; 100 mg enzyme A, 10 mmol ester in 100 ml 0.2 M phosphate buffer pH 7.0, 20-22 C, 20 hours): 50.0%
conversion of the racemic ester to acid ([3]; 1.00 gm enzyme A, about 1M ester, pH 7.0, room temperature, 23.9 hours, by NaOH titration): 29%
% CONVERSION [7, 8]: 32.0%
% e.e. ([7]; acid product, pH 7.8): 91.0%
SMILES: CC(C)Cc1ccc(C(C)C(=O)OCCCS(=O)(=O)O)cc1 (racemic) [Compound 3, Potassium Salt of 3-SulfopropylEster of 2-(4-Isobutylphenyl)propanoic Acid]

% e.e. ([3]; naproxen acid product, 150 mg enzyme A, pH 7.8, 18 hours (Table 12)): 78.0%
SMILES: COc1ccc2cc(C(C)C(=O)OCCCS(=O)(=O)O)ccc2c1 (stereo not shown) [Compound 7, Potassium Salt of the 3-Sulfopropyl Ester of 2-(6-Methoxy-2-naphthyl)propanoic Acid]
